Source: ChEMBL document CHEMBL2074470, “P-glycoprotein-mediated transport of itraconazole across the blood-brain barrier” (Antimicrob Agents Chemother, 1998)

Target: ATP-dependent translocase ABCB1 (Mus musculus, UniProt P21447)
Assay: TP_TRANSPORTER: increase in brain concentration in mdr1a(-/-) mouse
Type: functional, organism-based
Details: in vivo

Sequence of ATP-dependent translocase ABCB1 (P21447 whole entry): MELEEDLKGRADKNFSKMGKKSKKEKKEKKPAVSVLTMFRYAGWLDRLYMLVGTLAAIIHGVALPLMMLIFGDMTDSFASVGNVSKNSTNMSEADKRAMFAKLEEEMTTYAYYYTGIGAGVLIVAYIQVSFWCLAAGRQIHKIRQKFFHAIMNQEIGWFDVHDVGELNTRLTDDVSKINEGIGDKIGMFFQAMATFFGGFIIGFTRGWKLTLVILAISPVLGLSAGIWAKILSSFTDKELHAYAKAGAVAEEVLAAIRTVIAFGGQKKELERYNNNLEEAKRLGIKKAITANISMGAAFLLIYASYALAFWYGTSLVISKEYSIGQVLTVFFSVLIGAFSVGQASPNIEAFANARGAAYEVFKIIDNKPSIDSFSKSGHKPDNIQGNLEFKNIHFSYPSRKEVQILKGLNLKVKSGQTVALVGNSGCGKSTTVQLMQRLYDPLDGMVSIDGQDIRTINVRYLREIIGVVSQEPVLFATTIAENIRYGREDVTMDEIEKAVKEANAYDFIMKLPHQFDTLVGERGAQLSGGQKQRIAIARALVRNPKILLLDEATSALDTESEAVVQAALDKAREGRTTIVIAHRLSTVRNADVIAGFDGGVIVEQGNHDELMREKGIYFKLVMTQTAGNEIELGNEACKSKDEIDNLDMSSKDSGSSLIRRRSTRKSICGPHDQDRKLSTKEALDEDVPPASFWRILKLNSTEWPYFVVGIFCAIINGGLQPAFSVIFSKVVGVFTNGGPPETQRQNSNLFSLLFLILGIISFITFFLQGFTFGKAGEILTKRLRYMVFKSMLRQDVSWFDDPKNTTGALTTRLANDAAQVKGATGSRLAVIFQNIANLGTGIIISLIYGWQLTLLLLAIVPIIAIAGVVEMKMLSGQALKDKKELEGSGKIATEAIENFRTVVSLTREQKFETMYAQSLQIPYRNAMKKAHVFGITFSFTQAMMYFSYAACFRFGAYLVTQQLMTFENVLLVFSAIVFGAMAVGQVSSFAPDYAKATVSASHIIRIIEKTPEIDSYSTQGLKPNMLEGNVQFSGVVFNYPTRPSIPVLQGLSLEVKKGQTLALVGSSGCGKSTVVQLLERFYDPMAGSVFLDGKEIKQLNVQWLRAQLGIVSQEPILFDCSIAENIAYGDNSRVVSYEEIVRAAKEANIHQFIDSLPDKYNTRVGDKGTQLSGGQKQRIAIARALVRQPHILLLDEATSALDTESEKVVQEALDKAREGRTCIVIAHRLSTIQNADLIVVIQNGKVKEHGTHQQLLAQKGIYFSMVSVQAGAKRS

Activity: substrate [+]
Compound: CCC(C)n1ncn(-c2ccc(N3CCN(c4ccc(OCC5COC(Cn6cncn6)(c6ccc(Cl)cc6Cl)O5)cc4)CC3)cc2)c1=O (stereo unspecified) [ITRACONAZOLE]
